# Experimental data taken from US4450115A, “Amino-alcohol derivatives” (Kyowa Hakko Kogyo Co., Ltd., priority 1979, dated 1984).
# Counter-ions that a name gives are not always drawn. Like-named read-outs stand apart in the source and are kept apart here.
# How the values were obtained:
# [1] = system: main artery of the dogs' organ; assay: Effect on organ blood flow; assay type: in vivo, mongrel dogs; settings: Canis lupus familiaris, iv, Table 5, femoral vein;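 further: percent change relative to blood flow before compound administration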
# Description: (§1) In experiments (a), (b), (c) and (d), 3-4 male or female mongrel dogs (weight: 10-20 Kg) as one group were anesthetized by intravenous administration of 30 mg/kg of pentobarbital-Na. All compounds were dissolved in polyethylene glycol 400 and administered to the femoral vein.
# (b) Effect on organ blood flow M (%)
# In this test, 1 mg/kg of each compound shown in Tables 5 and 7 is administered to the dogs and an electromagnetic probe is attached to the main artery of the dogs' organ to measure the flow of blood.
# [2] = in vivo; settings: mouse, male dd-strain mice
# Source text: The test compounds were orally administered to male dd-strain mice weighing 20-25 g.
# [3] = system: α-adrenergic receptor; assay: α blocking activity (inhibition of Norepinephrine-induced increase in systolic blood pressure); assay type: in vivo, mongrel dogs; settings: Table 6, dogs, 3 μg/kg Norepinephrine i.v.
# Description: as §1
# (c-1) α blocking activity
# In this test, 3 μg/kg of Norepinephrine is intravenously administered to the dogs to cause an increase in systolic blood pressure.
# [4] = system: β1-adrenergic receptor; assay: β1 blocking activity (inhibition of Isoproterenol-induced increase in heart rate); assay type: in vivo, mongrel dogs; settings: Table 6, dogs, 0.5 μg/kg Isoproterenol i.v.
# Description: as §1
# (c-2) β1 blocking activity
# In this test, 0.5 μg/kg of Isoproterenol is intravenously administered to the dogs to cause an increase in the heart rate.
# [5] = system: β2-adrenergic receptor; assay: β2 blocking activity (inhibition of Isoproterenol-induced decrease in diastolic blood pressure); assay type: in vivo, mongrel dogs; settings: Table 6, dogs, 0.5 μg/kg Isoproterenol i.v.
# Description: as §1
# (c-3) β2 blocking activity
# In this test, 0.5 μg/kg of Isoproterenol is intravenously administered to the dogs to cause a decrease in diastolic blood pressure.
# [6] = read-out: Organ blood flow, Crotch (percentage change)
# [7] = read-out: Organ blood flow, Malleus (percentage change)
SMILES,"change in vivo at 1 mg/kg [1, 6] [%]","change in vivo at 1 mg/kg [1, 7] [%]","LD50 ([2]; Table 5, oral) [mg/kg]","LD50 ([2]; Table 6, oral) [mg/kg]","α blocking activity, percentage inhibition ([3]; test compound 0.1 mg/kg)","β1 blocking activity, percentage inhibition ([4]; test compound 0.1 mg/kg)","β2 blocking activity, percentage inhibition ([5]; test compound 0.1 mg/kg)",other results
"Cc1cccc(OCC(O)CNCC2COc3ccccc3O2)c1 (centres unmarked) [Compound 1, 1-(3-methylphenoxy)-3-(1,4-benzodioxane-2-methaneamino)-2-propanol]",35,67,1000 to 2000,,,,,
"CC(=O)Nc1ccc(OCC(O)CNCC2COc3ccccc3O2)cc1 (centres unmarked) [Compound 2, 1-(4-acetamidophenoxy)-3-(1,4-benzodioxane-2-methaneamino)-2-propanol]",20,50,500 to 1000,,,,,
"N#Cc1ccccc1OCC(O)CNCC1COc2ccccc2O1 (centres unmarked) [Compound 3, 1-(2-cyanophenoxy)-3-(1,4-benzodioxane-2-methaneamino)-2-propanol]",-21,18,420,,,,,
"CCOC(=O)Cc1ccc(OCC(O)CNCC2COc3ccccc3O2)cc1 (centres unmarked) [Compound 5, 1-(4-ethoxycarbonylmethyl)phenoxy-3-(1,4-benzodioxane-2-methaneamino)-2-propanol]",-26,-84,> 1000,,,,,
"Cc1cccc(OCC(O)CNCC2COc3ccccc3O2)c1C (centres unmarked) [Compound 6, 1-(2,3-dimethylphenoxy)-3-(1,4-benzodioxane-2-methaneamino)-2-propanol]",17,-9,> 1000,,,,,
"OC(CNCC1COc2ccccc2O1)COc1cccc2ccccc12 (centres unmarked) [Compound 7, 1-(1-naphthyloxy)-3-(1,4-benzodioxane-2-methaneamino)-2-propanol]",-36,59,> 1000,,,,,
"COc1ccc(C(O)C(C)NCC2COc3ccccc3O2)cc1C (centres unmarked) [Compound 8, 1-(3-methyl-4-methoxy)phenyl-2-(1,4-benzodioxane-2-methaneamino)propanol]",-67,-4,450,,,,,
"Cc1c(C(O)CNCC2COc3ccccc3O2)oc2ccc(F)cc12 (centres unmarked) [Compound 9, 1-(5-fluoro-3-methyl-2-benzofuranyl)-2-(1,4-benzodioxane-2-methaneamino)ethanol]",42,35,,,,,,
"COC(=O)c1cc(C(O)CNCC2COc3ccccc3O2)ccc1O (centres unmarked) [Compound 10, 1-(3-methoxycarbonyl-4-hydroxy)phenyl-2-(1,4-benzodioxane-2-methaneamino)ethanol]",-50,-16,,,,,,
"CC(CCc1ccccc1)NCC(O)COc1ccc(CC(N)=O)cc1 (centres unmarked) [Compound 11, 1-(4-carbamoylmethylphenoxy)-3-(1-methyl-3-phenylpropylamino)-2-propanol]",,,,> 1000,,,,"α blocking activity, percentage inhibition ([3]; *dose of compound 1 mg/kg): -78%; β1 blocking activity, percentage inhibition ([4]; *dose of compound 1 mg/kg): -86%; β2 blocking activity, percentage inhibition ([5]; *dose of compound 1 mg/kg): -22%"
"CC(CCc1ccccc1)NCC(O)COc1ccccc1C#N (centres unmarked) [Compound 12, 1-(2-cyanophenoxy)-3-(1-methyl-3-phenylpropylamino)-2-propanol]",,,,125 to 250,,,,"α blocking activity, percentage inhibition ([3]; *dose of compound 1 mg/kg): -52%; β1 blocking activity, percentage inhibition ([4]; *dose of compound 1 mg/kg): -100%; β2 blocking activity, percentage inhibition ([5]; *dose of compound 1 mg/kg): -100%"
"Cc1cccc(OCC(O)CNC(C)CCc2ccccc2)c1C (centres unmarked) [Compound 13, 1-(2,3-dimethylphenoxy)-3-(1-methyl-3-phenylpropylamino)-2-propanol]",,,,500 to 1000,-20%,-73%,-34%,
"CCOC(=O)Cc1ccc(OCC(O)CNC(C)CCc2ccccc2)cc1 (centres unmarked) [Compound 14, 1-(4-ethoxycarbonylmethylphenoxy)-3-(1-methyl-3-phenylpropylamino)-2-propanol]",,,,> 1000,+13%,-11%,+2%,
"COC(=O)c1ccccc1OCC(O)CNC(C)CCc1ccccc1 (centres unmarked) [Compound 15, 1-(2-methoxycarbonylphenoxy)-3-(1-methyl-3-phenylpropylamino)-2-propanol]",,,,500 to 1000,-2%,-30%,-40%,
"CC(CCc1ccccc1)NCC(O)COc1ccccc1C(N)=O (centres unmarked) [Compound 16, 1-(2-carbamoylphenoxy)-3-(1-methyl-3-phenylpropylamino)-2-propanol]",,,,250 to 500,-28%,-57%,-19%,
"CC(CCc1ccccc1)NCC(O)COc1ccc(CC(=O)O)cc1 (centres unmarked) [Compound 17, 1-(4-carboxymethylphenoxy)-3-(1-methyl-3-phenylpropylamino)-2-propanol]",,,,> 1000,+15%,+13%,-13%,
"CC(CCc1ccccc1)NCC(O)COc1ccc(CC(=O)NN)cc1 (centres unmarked) [Compound 18, 1-(4-hydrazinocarbonylmethylphenoxy)-3-(1-methyl-3-phenylpropylamino)-2-propanol]",,,,> 1000,+10%,-3%,+2%,
"CCOC(=O)Cc1cccc(OCC(O)CNC(C)CCc2ccccc2)c1 (centres unmarked) [Compound 19, 1-(3-ethoxycarbonylmethylphenoxy)-3-(1-methyl-3-phenylpropylamino)-2-propanol]",,,,> 1000,+23%,-7%,+14%,
"CC(CCc1ccccc1)NCC(O)COc1cccc(CC(N)=O)c1 (centres unmarked) [Compound 20, 1-(3-carbamoylmethylphenoxy)-3-(1-methyl-3-phenylpropylamino)-2-propanol]",,,,> 1000,+7%,-9%,+9%,
"CC(=O)Nc1ccc(OCC(O)CNCc2ccc3c(c2)OCCO3)cc1 (centres unmarked) [Compound 23, 1-(4-acetamidophenoxy)-3-(1,4-benzodioxane-6-methaneamino)-2-propanol]",90,67,> 1000,,,,,
"O=C1CCCc2c(OCC(O)CNCc3ccc4c(c3)OCCO4)cccc21 (centres unmarked) [Compound 24, 1-{3,4-dihydro-1(2H)-naphthalenon-5-yl}oxy-3-(1,4-benzodioxane-6-methaneamino)-2-propanol]",106,60,> 1000,,,,,
"NC(=O)Cc1ccc(OCC(O)CNCc2ccc3c(c2)OCCO3)cc1 (centres unmarked) [Compound 25, 1-(4-carbamoylmethylphenoxy)-3-(1,4-benzodioxane-6-methaneamino)-2-propano]",90,22,> 1000,,,,,
"CC(CCc1ccccc1)NCC(O)c1ccc(O)c(C(N)=O)c1 (centres unmarked) [Reference compound, 5-[1-hydroxy-2-(1-methyl-3-phenylpropyl)aminoethyl] salicylamide hydrochloride, reference compound]",,,,,-32%,-69%,-50%,
